Numbers after ± are expanded uncertainties.
Experiment: xn = mol fraction of the nth substance listed
Conditions: 273.15 K, Fluid (supercritical or subcritical phases), x1 = 0.97; for mass density: Vibrating tube method; for speed of sound: Frequency=5 MHz, Pulse-echo method

SMILES: O=C=O [carbon dioxide] + CO
- mass density (5000 kPa): 943.89 ± 0.8 kg/m3
- mass density (5025 kPa): 944.05 ± 0.8 kg/m3
- mass density (5050 kPa): 944.22 ± 0.8 kg/m3
- mass density (5075 kPa): 944.38 ± 0.8 kg/m3
- mass density (5100 kPa): 944.55 ± 0.8 kg/m3
- mass density (5125 kPa): 944.71 ± 0.8 kg/m3
- mass density (5150 kPa): 944.88 ± 0.8 kg/m3
- mass density (5175 kPa): 945.05 ± 0.8 kg/m3
- mass density (5200 kPa): 945.28 ± 0.8 kg/m3
- mass density (5225 kPa): 945.45 ± 0.8 kg/m3
- mass density (5250 kPa): 945.61 ± 0.8 kg/m3
- mass density (5275 kPa): 945.83 ± 0.8 kg/m3
- mass density (5300 kPa): 945.95 ± 0.8 kg/m3
- mass density (5325 kPa): 946.18 ± 0.8 kg/m3
- mass density (5350 kPa): 946.35 ± 0.8 kg/m3
- mass density (5375 kPa): 946.51 ± 0.8 kg/m3
- mass density (5400 kPa): 946.68 ± 0.8 kg/m3
- mass density (5425 kPa): 946.88 ± 0.8 kg/m3
- mass density (5450 kPa): 947.02 ± 0.8 kg/m3
- mass density (5475 kPa): 947.19 ± 0.8 kg/m3
- mass density (5500 kPa): 947.38 ± 0.8 kg/m3
- mass density (5525 kPa): 947.55 ± 0.8 kg/m3
- mass density (5550 kPa): 947.7 ± 0.8 kg/m3
- mass density (5575 kPa): 947.84 ± 0.8 kg/m3
- mass density (5600 kPa): 948 ± 0.8 kg/m3
- mass density (5625 kPa): 948.22 ± 0.8 kg/m3
- mass density (5650 kPa): 948.35 ± 0.8 kg/m3
- mass density (5675 kPa): 948.48 ± 0.8 kg/m3
- mass density (5700 kPa): 948.64 ± 0.8 kg/m3
- mass density (5725 kPa): 948.81 ± 0.8 kg/m3
- mass density (5750 kPa): 948.97 ± 0.8 kg/m3
- mass density (5775 kPa): 949.13 ± 0.8 kg/m3
- mass density (5800 kPa): 949.3 ± 0.8 kg/m3
- mass density (5825 kPa): 949.41 ± 0.8 kg/m3
- mass density (5850 kPa): 949.62 ± 0.8 kg/m3
- mass density (5875 kPa): 949.74 ± 0.8 kg/m3
- mass density (5900 kPa): 949.87 ± 0.8 kg/m3
- mass density (5925 kPa): 950.03 ± 0.8 kg/m3
- mass density (5950 kPa): 950.2 ± 0.8 kg/m3
- mass density (5975 kPa): 950.35 ± 0.8 kg/m3
- mass density (6000 kPa): 950.47 ± 0.8 kg/m3
- speed of sound (6020 kPa): 581.6 ± 1 m/s
- mass density (6025 kPa): 950.61 ± 0.8 kg/m3
- speed of sound (6040 kPa): 581 ± 1 m/s
- mass density (6050 kPa): 950.77 ± 0.8 kg/m3
- mass density (6075 kPa): 950.93 ± 0.8 kg/m3
- mass density (6100 kPa): 951.1 ± 0.8 kg/m3
- mass density (6125 kPa): 951.26 ± 0.8 kg/m3
- mass density (6150 kPa): 951.39 ± 0.8 kg/m3
- mass density (6175 kPa): 951.59 ± 0.8 kg/m3
- mass density (6200 kPa): 951.67 ± 0.8 kg/m3
- mass density (6225 kPa): 951.86 ± 0.8 kg/m3
- mass density (6250 kPa): 952.08 ± 0.8 kg/m3
- mass density (6275 kPa): 952.24 ± 0.8 kg/m3
- mass density (6300 kPa): 952.33 ± 0.8 kg/m3
- mass density (6325 kPa): 952.49 ± 0.8 kg/m3
- mass density (6350 kPa): 952.65 ± 0.8 kg/m3
- mass density (6375 kPa): 952.82 ± 0.8 kg/m3
- mass density (6400 kPa): 952.98 ± 0.8 kg/m3
- mass density (6425 kPa): 953.14 ± 0.8 kg/m3
- mass density (6450 kPa): 953.31 ± 0.8 kg/m3
- mass density (6475 kPa): 953.47 ± 0.8 kg/m3
- mass density (6500 kPa): 953.64 ± 0.8 kg/m3
- mass density (6525 kPa): 953.73 ± 0.8 kg/m3
- mass density (6550 kPa): 953.88 ± 0.8 kg/m3
- mass density (6575 kPa): 954.04 ± 0.8 kg/m3
- mass density (6600 kPa): 954.21 ± 0.8 kg/m3
- mass density (6625 kPa): 954.37 ± 0.8 kg/m3
- mass density (6650 kPa): 954.53 ± 0.8 kg/m3
- mass density (6675 kPa): 954.7 ± 0.8 kg/m3
- mass density (6700 kPa): 954.86 ± 0.8 kg/m3
- mass density (6725 kPa): 955.03 ± 0.8 kg/m3
- mass density (6750 kPa): 955.19 ± 0.8 kg/m3
- mass density (6775 kPa): 955.35 ± 0.8 kg/m3
- mass density (6800 kPa): 955.52 ± 0.8 kg/m3
- mass density (6825 kPa): 955.67 ± 0.8 kg/m3
- mass density (6850 kPa): 955.82 ± 0.8 kg/m3
- mass density (6875 kPa): 955.96 ± 0.8 kg/m3
- mass density (6900 kPa): 956.09 ± 0.8 kg/m3
- mass density (6925 kPa): 956.25 ± 0.8 kg/m3
- mass density (6950 kPa): 956.42 ± 0.8 kg/m3
- mass density (6975 kPa): 956.58 ± 0.8 kg/m3
- mass density (7000 kPa): 956.75 ± 0.8 kg/m3
- mass density (7025 kPa): 956.91 ± 0.8 kg/m3
- mass density (7050 kPa): 956.99 ± 0.8 kg/m3
- mass density (7075 kPa): 957.15 ± 0.8 kg/m3
- mass density (7100 kPa): 957.34 ± 0.8 kg/m3
- mass density (7125 kPa): 957.48 ± 0.8 kg/m3
- mass density (7150 kPa): 957.65 ± 0.8 kg/m3
- mass density (7175 kPa): 957.81 ± 0.8 kg/m3
- mass density (7200 kPa): 957.97 ± 0.8 kg/m3
- mass density (7225 kPa): 958.14 ± 0.8 kg/m3
- mass density (7250 kPa): 958.27 ± 0.8 kg/m3
- mass density (7275 kPa): 958.38 ± 0.8 kg/m3
- mass density (7300 kPa): 958.55 ± 0.8 kg/m3
- mass density (7325 kPa): 958.71 ± 0.8 kg/m3
- mass density (7350 kPa): 958.87 ± 0.8 kg/m3
- mass density (7375 kPa): 959 ± 0.8 kg/m3
- mass density (7400 kPa): 959.12 ± 0.8 kg/m3
- mass density (7425 kPa): 959.28 ± 0.8 kg/m3
- mass density (7450 kPa): 959.45 ± 0.8 kg/m3
- mass density (7475 kPa): 959.61 ± 0.8 kg/m3
- mass density (7500 kPa): 959.77 ± 0.8 kg/m3
- mass density (7525 kPa): 959.94 ± 0.8 kg/m3
- mass density (7550 kPa): 960.02 ± 0.8 kg/m3
- mass density (7575 kPa): 960.18 ± 0.8 kg/m3
- mass density (7600 kPa): 960.35 ± 0.8 kg/m3
- mass density (7625 kPa): 960.51 ± 0.8 kg/m3
- mass density (7650 kPa): 960.68 ± 0.8 kg/m3
- mass density (7675 kPa): 960.84 ± 0.8 kg/m3
- mass density (7700 kPa): 960.92 ± 0.8 kg/m3
- mass density (7725 kPa): 961.08 ± 0.8 kg/m3
- mass density (7750 kPa): 961.25 ± 0.8 kg/m3
- mass density (7775 kPa): 961.41 ± 0.8 kg/m3
- mass density (7800 kPa): 961.54 ± 0.8 kg/m3
- mass density (7825 kPa): 961.66 ± 0.8 kg/m3
- mass density (7850 kPa): 961.82 ± 0.8 kg/m3
- mass density (7875 kPa): 961.98 ± 0.8 kg/m3
- mass density (7900 kPa): 962.15 ± 0.8 kg/m3
- mass density (7925 kPa): 962.23 ± 0.8 kg/m3
- mass density (7950 kPa): 962.39 ± 0.8 kg/m3
- mass density (7975 kPa): 962.56 ± 0.8 kg/m3
